This passage reports IC50 results from US20240409585A1, “MACROCYCLIC IMMUNOMODULATORS” (priority 2021, published 2024).

Bridge positions count the residues as written; N and C are the ends. Square brackets hold non-standard residues; d marks the D form. Peptide text beside a SMILES is read from it. * marks the point of attachment. ξ: configuration not given here. Phe(4-COOH) = N[C@@H](Cc1ccc(C(=O)O)cc1)C(=O)O; Bip = N[C@@H](Cc1ccc(-c2ccccc2)cc1)C(=O)O; Phe(3-OMe) = COc1cccc(C[C@H](N)C(=O)O)c1; Phe(3-F) = N[C@@H](Cc1cccc(F)c1)C(=O)O; Phe(3-Me) = Cc1cccc(C[C@H](N)C(=O)O)c1; Val(3-OH) = CC(C)(O)[C@H](N)C(=O)O; 3Pal = N[C@@H](Cc1cccnc1)C(=O)O; 4Pal = N[C@@H](Cc1ccncc1)C(=O)O; Cha = N[C@@H](CC1CCCCC1)C(=O)O; Ile(3ξ) = CCC(C)[C@H](N)C(=O)O; Thr(3ξ) = CC(O)[C@H](N)C(=O)O; Carboxymethyl = O=C(O)C*; NMeA = CN[C@@H](C)C(=O)O; Aze = O=C(O)[C@@H]1CCN1; Dab = NCC[C@H](N)C(=O)O; Dap = NC[C@H](N)C(=O)O

By IC50 is commonly meant the point on the concentration scale where inhibition reaches its midpoint.

The target of one assay is T1, PE-labeled human PD-L1-Ig binding to Jurkat cell line over-expressing human PD-1 (Jurkat-PD-1) (Homo sapiens, UniProt Q15116).
T1 construct: expressed in transfected cells; host or cells: Jurkat
T1 sequence (Q15116 25-288): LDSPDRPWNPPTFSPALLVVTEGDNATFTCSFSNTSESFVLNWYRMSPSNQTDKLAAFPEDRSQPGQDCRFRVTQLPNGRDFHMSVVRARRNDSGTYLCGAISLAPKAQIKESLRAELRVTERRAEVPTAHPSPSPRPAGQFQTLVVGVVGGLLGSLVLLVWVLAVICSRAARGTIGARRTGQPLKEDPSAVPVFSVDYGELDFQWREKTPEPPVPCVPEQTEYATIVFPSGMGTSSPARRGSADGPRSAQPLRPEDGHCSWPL
The assay is described as follows: Jurkat-PD-1 Cell Binding High-Content Screening Assay (CBA): Method 1. The note with it: Jurkat HPDL1 PD1 IC50 (uM) (Method 1), Jurkat-hPD-1 cells, PE-labeled PD-L1-Ig 20 nM final.
`C=C1N[C@@H](Cc2ccccc2)C(=O)N(C)[C@@H](C)C(=O)N[C@H](CC(C)C)C(=O)N[C@@H](CC(N)=O)C(=O)N[C@@H](CC(C)C)C(=O)N[C@@H](Cc2ccccc2)C(=O)N[C@@H](CO)C(=O)N[C@H](C(=O)N[C@@H](C)C(N)=O)CSCC(=O)N[C@@H](Cc2ccc(OCC(=O)O)cc2)C(=O)N[C@@H](Cc2ccc(C(=O)O)cc2)C(=O)N[C@@H](CC(=O)O)C(=O)N[C@@H](Cc2cccc(C)c2)C(=O)N[C@@H](CC(C)C)C(=O)N[C@H]1Cc1ccc(-c2ccccc2)cc1` [Compound 1585]: the IC50 came out at 0.73 µM.

The assay is the same for the next values; noted with them: Jurkat-hPD-1 cells, PE-labeled PD-L1-Ig 20 nM final; read-out: Jurkat HPDL1 PD1 IC50 (uM) (Method 1).
Regarding `COc1cccc(C[C@@H]2NC(=O)[C@H](CC(=O)O)NC(=O)[C@H](Cc3ccc(O)cc3)NC(=O)[C@H](CC(N)=O)NC(=O)CSC[C@@H](C(=O)N[C@@H](C)C(N)=O)NC(=O)[C@H]([C@@H](C)O)NC(=O)[C@H](C(C)C)NC(=O)[C@H](CC(C)C)NC(=O)[C@H](CCCNC(=N)N)NC(=O)[C@@H](CC(C)C)NC(=O)[C@H](C)N(C)C(=O)[C@H](C(C)C)NC(=O)[C@H](Cc3ccc(-c4ccccc4)cc3)NC(=O)[C@H](C(C)C)NC2=O)c1` [Compound 1292] ({CH2CO}-NYD[Phe(3-OMe)]V[Bip]V[NMeA][dL]RLVTCA-NH2; thioether N-14), the IC50 is 0.03 µM.

`CC(C)C[C@@H]1NC(=O)[C@H](Cc2c[nH]c3ccccc23)NC(=O)[C@H](CC(=O)O)NC(=O)[C@H](Cc2ccc(C(=O)O)cc2)NC(=O)[C@H](Cc2ccc(OCC(=O)O)cc2)NC(=O)CSC[C@@H](C(=O)N[C@@H](CCN)C(N)=O)NC(=O)[C@H](CCC(=O)O)NC(=O)[C@H](C(C)(C)O)NC(=O)[C@H](CC2CCCCC2)NC(=O)[C@H](CCN)NC(=O)[C@@H](CC(C)C)NC(=O)[C@H](C)N(C)C(=O)[C@H](C(C)(C)O)NC(=O)[C@H](Cc2ccc(-c3ccccc3)cc2)NC1=O` [Compound 1717] ({CH2CO}-Y(Carboxymethyl)[Phe(4-COOH)]DWL[Bip][Val(3-OH)][NMeA][dL][Dab][Cha][Val(3-OH)]EC[Dab]-NH2; thioether N-14): the concentration for half-maximal inhibition (IC50) is 0.02 µM.

Take `CC(C)C[C@@H]1NC(=O)[C@H](CCN)NC(=O)[C@@H](CC(C)C)NC(=O)[C@H](C)N(C)C(=O)[C@H](CCCNC(=N)N)NC(=O)[C@H](Cc2ccc(-c3ccccc3)cc2)NC(=O)[C@H](C(C)C)NC(=O)[C@H](Cc2c[nH]c3ccccc23)NC(=O)[C@H](CC(=O)O)NC(=O)[C@H](Cc2cccc(F)c2)NC(=O)[C@H](CC(N)=O)NC(=O)CSC[C@@H](C(=O)N[C@@H](C)C(N)=O)NC(=O)[C@H]([C@@H](C)O)NC(=O)[C@H](C(C)C)NC1=O` [Compound 1309] ({CH2CO}-N[Phe(3-F)]DWV[Bip]R[NMeA][dL][Dab]LVTCA-NH2; thioether N-14): the IC50 was determined as 0.09 µM.

For the molecule `Cc1cccc(C[C@@H]2NC(=O)[C@H](CC(=O)O)NC(=O)[C@H](Cc3ccc(OCC(=O)O)cc3)NC(=O)[C@H](Cc3ccncc3)NC(=O)CSC[C@@H](C(=O)N[C@@H](C)C(N)=O)NC(=O)[C@H]([C@@H](C)O)NC(=O)[C@H](C(C)C)NC(=O)[C@H](CC(C)C)NC(=O)[C@H](CCN)NC(=O)[C@@H](CC(C)C)NC(=O)[C@H](C)N(C)C(=O)[C@H](C(C)C)NC(=O)[C@H](Cc3ccc(-c4ccccc4)cc3)NC(=O)[C@H](C(C)C)NC2=O)c1` [Compound 1419] ({CH2CO}-[4Pal]Y(Carboxymethyl)D[Phe(3-Me)]V[Bip]V[NMeA][dL][Dab]LVTCA-NH2; thioether N-14), the IC50 stood at 0.01 µM.

As for `CC(C)C[C@@H]1NC(=O)[C@H](CCN)NC(=O)[C@@H](CC(C)C)NC(=O)[C@@H]2CCN2C(=O)[C@H](C(C)C)NC(=O)[C@H](Cc2ccc(-c3ccccc3)cc2)NC(=O)[C@H](C(C)C)NC(=O)[C@H](Cc2c[nH]c3ccccc23)NC(=O)[C@H](CC(=O)O)NC(=O)[C@H](Cc2ccc(O)cc2)NC(=O)[C@H](CC(N)=O)NC(=O)CSC[C@@H](C(=O)N[C@@H](C)C(N)=O)NC(=O)[C@H]([C@@H](C)O)NC(=O)[C@H](C(C)C)NC1=O` [Compound 1297] ({CH2CO}-NYDWV[Bip]V[Aze][dL][Dab]LVTCA-NH2; thioether N-14), the IC50 is 0.32 µM.

With `Cc1cccc(C[C@@H]2NC(=O)[C@H](CC(=O)O)NC(=O)[C@H](Cc3ccc(OCC(=O)O)cc3)NC(=O)[C@H](CCN)NC(=O)CSC[C@@H](C(=O)N[C@@H](CCN)C(N)=O)NC(=O)[C@H](C(C)O)NC(=O)[C@H](C(C)C)NC(=O)[C@H](CC3CCCCC3)NC(=O)[C@H](CCN)NC(=O)[C@@H](CC(C)C)NC(=O)[C@H](C)N(C)C(=O)[C@H](Cc3ccc(OCC(=O)O)cc3)NC(=O)[C@H](Cc3ccc(-c4ccccc4)cc3)NC(=O)[C@H](Cc3ccc(OCC(=O)O)cc3)NC2=O)c1` (stereo partly drawn) [Compound 2154] ({CH2CO}-[Dab]Y(Carboxymethyl)D[Phe(3-Me)]Y(Carboxymethyl)[Bip]Y(Carboxymethyl)[NMeA][dL][Dab][Cha]V[Thr(3ξ)]C[Dab]-NH2; thioether N-14), the IC50 was found to be 0.01 µM.

For `CCC(C)[C@@H]1NC(=O)[C@H](Cc2ccc(-c3ccccc3)cc2)NC(=O)[C@H](CC2CCCCC2)NC(=O)[C@H](Cc2c[nH]c3ccccc23)NC(=O)[C@H](CC(=O)O)NC(=O)[C@H](Cc2ccc(OCC(=O)O)cc2)NC(=O)[C@H](C(C)O)NC(=O)CSC[C@@H](C(=O)N[C@@H](CC(N)=O)C(=O)O)NC(=O)[C@H](CO)NC(=O)[C@H](C(C)C)NC(=O)[C@H](CC(C)C)NC(=O)[C@H](CCN)NC(=O)[C@@H](CC(C)C)NC(=O)[C@H](C)N(C)C1=O` (stereo partly drawn) [Compound 2223] ({CH2CO}-[Thr(3ξ)]Y(Carboxymethyl)DW[Cha][Bip][Ile(3ξ)][NMeA][dL][Dab]LVSCN-OH; thioether N-14), the IC50 came to 0.04 µM.

In the case of `CC(C)C[C@@H]1NC(=O)[C@H](CCN)NC(=O)[C@@H](CC(C)C)NC(=O)[C@H](C)N(C)C(=O)[C@H](C(C)C)NC(=O)[C@H](Cc2ccc(-c3ccccc3)cc2)NC(=O)[C@H](C(C)C)NC(=O)[C@H](Cc2c[nH]c3ccccc23)NC(=O)[C@H](CC(=O)O)NC(=O)[C@H](Cc2ccc(C(=O)O)cc2)NC(=O)[C@H](CC(N)=O)NC(=O)CSC[C@@H](C(=O)N[C@@H](C)C(N)=O)NC(=O)[C@H]([C@@H](C)O)NC(=O)[C@H](C(C)C)NC1=O` [Compound 1378] ({CH2CO}-N[Phe(4-COOH)]DWV[Bip]V[NMeA][dL][Dab]LVTCA-NH2; thioether N-14), the IC50 amounted to 0.01 µM.

On to `Cc1cccc(C[C@@H]2NC(=O)[C@H](CC(=O)O)NC(=O)[C@H](Cc3ccc(OCC(=O)O)cc3)NC(=O)[C@H](CN)NC(=O)CSC[C@@H](C(N)=O)NC(=O)[C@H](CC(N)=O)NC(=O)[C@H](C(C)C)NC(=O)[C@H](CC3CCCCC3)NC(=O)[C@H](CCN)NC(=O)[C@@H](CC(C)C)NC(=O)[C@H](C)N(C)C(=O)[C@H](Cc3ccc(OCC(=O)O)cc3)NC(=O)[C@H](Cc3ccc(-c4ccccc4)cc3)NC(=O)[C@H](Cc3ccc(OCC(=O)O)cc3)NC2=O)c1` [Compound 1647] ({CH2CO}-[Dap]Y(Carboxymethyl)D[Phe(3-Me)]Y(Carboxymethyl)[Bip]Y(Carboxymethyl)[NMeA][dL][Dab][Cha]VNC-NH2; thioether N-14), for which the IC50 turned out to be 0.04 µM.

As for `CC(C)C[C@@H]1NC(=O)[C@H](CCCNC(=N)N)NC(=O)[C@@H](CC(C)C)NC(=O)[C@H](C)N(C)C(=O)[C@H](CCCNC(=N)N)NC(=O)[C@H](Cc2ccc(-c3ccccc3)cc2)NC(=O)[C@H](C(C)C)NC(=O)[C@H](Cc2c[nH]c3ccccc23)NC(=O)[C@H](CC(=O)O)NC(=O)[C@H](Cc2cccnc2)NC(=O)[C@H](Cc2ccccc2)NC(=O)CSC[C@@H](C(=O)N[C@@H](C)C(N)=O)NC(=O)[C@H]([C@@H](C)O)NC(=O)[C@H](C(C)C)NC1=O` [Compound 1101] ({CH2CO}-F[3Pal]DWV[Bip]R[NMeA][dL]RLVTCA-NH2; thioether N-14), the IC50 stood at 0.29 µM.
